Structures can show the parent of a compound that is named as a salt.
Key:
5-HT2B = 5-HT2B (Homo sapiens, UniProt P41595); conditions: ref Schindler et al., 2019; cited from earlier work
male Sprague-Dawley rats = assay: In vivo biotelemetry; conditions: s.c., amphetamine 0.1–3 mg/kg, PEA analogs 1–10 mg/kg
α2A = molecular target: T1, α2A (Homo sapiens, UniProt P08913); conditions: ref Schindler et al., 2019; cited from earlier work
T1 sequence (P08913 1-465): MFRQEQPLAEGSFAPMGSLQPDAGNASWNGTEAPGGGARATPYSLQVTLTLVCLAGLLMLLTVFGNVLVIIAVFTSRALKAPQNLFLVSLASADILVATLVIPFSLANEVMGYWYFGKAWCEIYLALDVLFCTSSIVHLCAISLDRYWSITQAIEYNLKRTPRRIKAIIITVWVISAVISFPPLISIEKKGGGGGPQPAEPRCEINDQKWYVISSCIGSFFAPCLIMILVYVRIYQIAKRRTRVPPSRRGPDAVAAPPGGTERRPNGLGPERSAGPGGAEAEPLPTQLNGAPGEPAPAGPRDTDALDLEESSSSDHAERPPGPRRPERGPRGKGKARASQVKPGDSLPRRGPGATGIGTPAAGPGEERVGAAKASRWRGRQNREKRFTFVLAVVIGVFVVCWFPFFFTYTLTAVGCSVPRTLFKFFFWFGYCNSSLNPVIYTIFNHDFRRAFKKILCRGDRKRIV

humans [1] = conditions: ref Brauer and de Wit, 1996, Kelly et al., 2006, Harvanko et al., 2016; cited from earlier work
5-HT1A = molecular target: T2, 5-HT1A (Homo sapiens, UniProt P08908); conditions: ref Schindler et al., 2019; cited from earlier work
T2 sequence (P08908 1-422): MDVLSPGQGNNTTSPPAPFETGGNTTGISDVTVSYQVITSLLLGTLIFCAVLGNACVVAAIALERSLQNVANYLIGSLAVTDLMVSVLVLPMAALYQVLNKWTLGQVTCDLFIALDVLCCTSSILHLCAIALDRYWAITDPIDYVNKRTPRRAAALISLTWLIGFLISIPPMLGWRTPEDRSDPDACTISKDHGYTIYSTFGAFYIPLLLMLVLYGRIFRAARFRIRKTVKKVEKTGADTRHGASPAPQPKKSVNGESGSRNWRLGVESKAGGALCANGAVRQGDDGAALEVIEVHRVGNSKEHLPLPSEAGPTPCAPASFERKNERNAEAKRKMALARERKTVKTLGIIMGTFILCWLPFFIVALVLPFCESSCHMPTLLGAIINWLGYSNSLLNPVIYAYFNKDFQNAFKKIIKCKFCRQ

α2C = molecular target: T3, α2C (Homo sapiens, UniProt P18825); conditions: ref Schindler et al., 2019; cited from earlier work
T3 sequence (P18825 1-462): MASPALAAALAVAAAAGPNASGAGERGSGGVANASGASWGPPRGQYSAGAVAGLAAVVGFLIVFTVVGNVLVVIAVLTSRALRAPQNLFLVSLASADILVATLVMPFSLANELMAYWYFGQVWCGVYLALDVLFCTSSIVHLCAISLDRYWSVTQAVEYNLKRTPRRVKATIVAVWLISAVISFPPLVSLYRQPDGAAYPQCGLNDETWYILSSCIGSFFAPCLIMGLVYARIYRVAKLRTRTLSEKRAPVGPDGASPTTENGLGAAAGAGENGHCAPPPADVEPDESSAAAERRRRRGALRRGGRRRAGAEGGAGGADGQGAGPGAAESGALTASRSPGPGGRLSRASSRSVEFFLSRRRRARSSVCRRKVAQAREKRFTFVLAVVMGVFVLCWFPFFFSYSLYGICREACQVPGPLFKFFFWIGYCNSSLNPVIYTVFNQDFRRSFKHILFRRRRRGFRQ

humans [2] = conditions: ref Chait et al., 1985; cited from earlier work
rats = conditions: ref Schindler et al., 2019, cited from earlier work

5-HT2B, sequence (P41595 whole entry): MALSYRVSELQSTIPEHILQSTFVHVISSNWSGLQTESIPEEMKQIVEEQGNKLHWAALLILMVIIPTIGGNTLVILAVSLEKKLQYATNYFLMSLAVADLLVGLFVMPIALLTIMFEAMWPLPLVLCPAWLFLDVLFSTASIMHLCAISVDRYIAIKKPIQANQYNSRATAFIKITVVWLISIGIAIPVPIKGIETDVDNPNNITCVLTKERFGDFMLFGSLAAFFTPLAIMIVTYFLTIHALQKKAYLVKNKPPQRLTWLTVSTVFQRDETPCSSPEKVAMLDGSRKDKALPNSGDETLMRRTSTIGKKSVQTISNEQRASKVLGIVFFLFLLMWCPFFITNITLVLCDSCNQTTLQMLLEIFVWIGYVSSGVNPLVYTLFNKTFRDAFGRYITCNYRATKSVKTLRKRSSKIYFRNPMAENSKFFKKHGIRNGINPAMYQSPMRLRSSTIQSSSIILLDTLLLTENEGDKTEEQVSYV

Structure (SMILES) | Ki (5-HT2B) [µM] | effect on core body temperature (male Sprague-Dawley rats) | Ki (α2A) [µM] | lowest oral doses that increase BP and HR (humans [1]) [mg] | Ki (5-HT1A) [µM] | Ki (α2C) [µM] | threshold oral dose that can be discriminated (humans [2]) [mg] | effect on HR or activity (rats; at the doses tested) | reduction of potency to increase BP compared with amphetamine (rats)
C[C@H](N)Cc1ccccc1 [Amphetamine, (S)-amphetamine sulfate] | 0.971 | did not significantly affect body temperature | 0.42 | 7.5 to 10 | 2.63 | 0.171 | 5 | – | –
CC(CN)c1ccccc1 (stereo not drawn) [BMPEA, β-methylphenethylamine] | – | – | – | – | – | – | – | did not increase HR or activity | about 30 fold

Source: article PMC7788351 (The Journal of Pharmacology and Experimental Therapeutics, 2021)
